Nine molecules from patent US20240342292A1, “Compounds for the Degradation of EGFR Kinase” (BeiGene Switzerland GmbH, priority 2021, published 2024) can be followed below.

The test system of one experiment is Del19/T790M/C797S EGFR. In words: EGFR degradation HTRF assay in H1975-clone #28 (DTC) cells. In kind it is cell-based. To be noted: H1975 # 28 DTC (Del19/T790M/C797S), 16h treatment; for DC50: HTRF; for Dmax (%): maximum percentage of degradation. In short, it runs like this: (§1)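 H1975 clones with endogenous EGFR knocked out and lentivirally expressed mutant EGFR treated 16 h at 37 °C with compounds, 8 doses from 10 uM, 5-fold dilutions, 0.2% DMSO. Lysates read by HTRF (665/620 nm) overnight; DC50 from four-parameter fit.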

A further experiment addresses T1, L858R/T790M/C797S EGFR (Homo sapiens, UniProt P00533, C797S/L858R/T790M).
T1 construct: expressed in transfected cells; host or cells: H1975 clone #25 (lentiviral over-expression, endogenous EGFR knocked out by sgRNA)
Put plainly: EGFR degradation HTRF assay in H1975-clone #25 (LTC) cells. The format is cell-based. To be noted: 16h treatment; for DC50: H1975 # 25-LTC (L858R/T790M/C797S), HTRF; for Dmax: NCI-H1975, H1975 # 25-LTC (L858R/T790M/C797S), maximum percentage of degradation. In short, it runs like this: as §1

The DC50 is the concentration at which degradation of the target reaches its halfway point. The Dmax is the largest share of the target that was removed. The low end stands for a partial loss of target, the high end for a fuller loss of target.

T1 sequence (P00533 25-1210 T790M/C797S/L858R): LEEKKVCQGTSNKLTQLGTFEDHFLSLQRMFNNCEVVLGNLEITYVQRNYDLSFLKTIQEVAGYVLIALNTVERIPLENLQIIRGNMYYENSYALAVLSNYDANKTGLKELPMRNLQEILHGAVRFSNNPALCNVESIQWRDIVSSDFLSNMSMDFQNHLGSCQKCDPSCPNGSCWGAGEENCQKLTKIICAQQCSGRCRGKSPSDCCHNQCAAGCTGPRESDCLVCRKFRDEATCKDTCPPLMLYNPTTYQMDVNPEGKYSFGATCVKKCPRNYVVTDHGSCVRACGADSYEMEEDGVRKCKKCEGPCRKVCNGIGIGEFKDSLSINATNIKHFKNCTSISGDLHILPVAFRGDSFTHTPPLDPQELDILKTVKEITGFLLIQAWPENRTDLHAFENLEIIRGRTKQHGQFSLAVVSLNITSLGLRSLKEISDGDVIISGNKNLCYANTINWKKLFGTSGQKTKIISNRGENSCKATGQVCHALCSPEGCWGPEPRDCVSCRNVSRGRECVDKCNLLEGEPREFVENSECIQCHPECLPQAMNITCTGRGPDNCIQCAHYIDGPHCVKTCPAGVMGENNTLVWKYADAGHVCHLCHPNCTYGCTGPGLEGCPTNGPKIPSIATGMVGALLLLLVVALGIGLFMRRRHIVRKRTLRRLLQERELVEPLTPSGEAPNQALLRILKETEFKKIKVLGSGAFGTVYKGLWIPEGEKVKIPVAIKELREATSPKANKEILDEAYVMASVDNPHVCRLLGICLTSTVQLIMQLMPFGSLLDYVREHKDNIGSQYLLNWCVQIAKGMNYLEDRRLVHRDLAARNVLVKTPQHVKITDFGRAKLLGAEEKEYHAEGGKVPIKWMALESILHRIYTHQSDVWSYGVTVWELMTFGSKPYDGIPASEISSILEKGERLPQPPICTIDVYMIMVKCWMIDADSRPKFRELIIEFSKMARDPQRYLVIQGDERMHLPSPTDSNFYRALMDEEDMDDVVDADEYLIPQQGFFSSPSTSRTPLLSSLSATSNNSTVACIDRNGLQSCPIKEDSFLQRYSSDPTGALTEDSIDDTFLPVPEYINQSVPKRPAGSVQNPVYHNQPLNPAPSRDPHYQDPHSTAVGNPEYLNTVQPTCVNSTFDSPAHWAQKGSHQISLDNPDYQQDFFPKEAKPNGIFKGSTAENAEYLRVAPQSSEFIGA

Turning to `Cc1cc2cc(n1)-c1cnn(C)c1OCCC[C@@H](C)CN1/C(=N/C2=O)Nc2ccc(N(C)C(=O)C3CCN(CCc4cc(F)c([C@H]5CCC(=O)NC5=O)c(F)c4)CC3)cc21` [Example 365, 1-(4-((R)-2,6-dioxopiperidin-3-yl)-3,5-difluorophenethyl)-N-methyl-N—((R,E)-1^1,2^6,7-trimethyl-3-oxo-5^2,5^3-dihydro-1^1H,5^1H-11-oxa-4-aza-5(2,1)-benzo[d]imidazola-2(2,4)-pyridina-(4,5)-pyrazolacycloundecaphane-5^6-yl)piperidine-4-carboxamide], in the experiment on Del19/T790M/C797S EGFR, the DC50 came out at 0.625 nM and the “Dmax (%)” value is listed as 80.74%. Further, at L858R/T790M/C797S EGFR, the DC50 was 0.878 nM and the Dmax stood at 91.1%.
On the same counts, the results for `Cc1cc2cc(n1)-c1cnn(C)c1OCCC[C@@H](C)CN1/C(=N/C2=O)Nc2ccc(N3CCC(N(C)C4CCN(c5cc(F)c([C@H]6CCC(=O)NC6=O)c(F)c5)CC4)CC3)cc21` [Example 394, (R)-3-(2,6-difluoro-4-(4-(methyl(1-((R,E)-1^1,2^6,7-trimethyl-3-oxo-5^2,5^3-dihydro-1^1H,5^1H-11-oxa-4-aza-5(2,1)-benzo[d]imidazola-2(2,4)-pyridina-1(4,5)-pyrazolacycloundecaphane-5^6-yl)piperidin-4-yl)amino)piperidin-1-yl)phenyl)piperidine-2,6-dione] are 0.901 nM, 69.35%, 0.787 nM and 74.1%.
For `Cc1cc2cc(n1)-c1cnn(C)c1OCCC[C@@H](C)CN1/C(=N/C2=O)Nc2ccc(CN3CC4CCC(C3)N4C(=O)[C@@H]3CCN(c4cc(F)c([C@H]5CCC(=O)NC5=O)c(F)c4)C3)cc21` [Example 83, (3R)-3-(2,6-difluoro-4-((3R)-3-(3-(((R,E)-1^1,2^6,7-trimethyl-3-oxo-5^2,5^3-dihydro-1^1H,5^1H-11-oxa-4-aza-5(2,1)-benzo[d]imidazola-2(2,4)-pyridina-1(4,5)-pyrazolacycloundecaphane-5^6-yl)methyl)-3,8-diazabicyclo[3.2.1]octane-8-carbonyl)pyrrolidin-1-yl)phenyl)piperidine-2,6-dione], in the experiment on Del19/T790M/C797S EGFR, the DC50 was 2 nM and the “Dmax (%)” value came to 73.0%. Besides, on L858R/T790M/C797S EGFR, the DC50 was 2 nM and the Dmax was 82.5%.
Take `Cc1cc2cc(n1)-c1cnn(C)c1OCCC[C@@H](C)CN1/C(=N/C2=O)Nc2ccc(CN3C[C@@H]4C[C@H]3CN4C(=O)[C@H]3CN(c4cc(F)c([C@H]5CCC(=O)NC5=O)c(F)c4)CC3(C)C)cc21` [Example 185, (R)-3-(4-((R)-3,3-dimethyl-4-((1S,4S)-5-(((R,E)-1^1,2^6,7-trimethyl-3-oxo-5^2,5^3-dihydro-1^1H,5^1H-11-oxa-4-aza-5(2,1)-benzo[d]imidazola-2(2,4)-pyridina-1(4,5)-pyrazolacycloundecaphane-5^6-yl)methyl)-2,5-diazabicyclo[2.2.1]heptane-2-carbonyl)pyrrolidin-1-yl)-2,6-difluorophenyl)piperidine-2,6-dione]: in the experiment with Del19/T790M/C797S EGFR, it took 0.752 nM to reach half-maximal degradation (DC50) and the “Dmax (%)” value is given as 60.18%. At L858R/T790M/C797S EGFR, this molecule had a half-maximal degradation concentration (DC50) of 1.04 nM and a Dmax of 87.1%.
With `Cc1cc2cc(n1)-c1cnn(C)c1OCCC[C@@H](C)CN1/C(=N/C2=O)Nc2ccc(N3CC(C(=O)N4CCN(c5cc(F)c([C@H]6CCC(=O)NC6=O)c(F)c5)CC4)C3)cc21` [Example 354, (R)-3-(2,6-difluoro-4-(4-(1-((R,E)-1^1,2^6,7-trimethyl-3-oxo-5^2,5^3-dihydro-1^1H,5^1H-11-oxa-4-aza-5(2,1)-benzo[d]imidazola-2(2,4)-pyridina-1(4,5)-pyrazolacycloundecaphane-5^6-yl)azetidine-3-carbonyl)piperazin-1-yl)phenyl)piperidine-2,6-dione], in the experiment with Del19/T790M/C797S EGFR, it took 0.501 nM to reach half-maximal degradation (DC50) and the “Dmax (%)” value was 72.74%. On L858R/T790M/C797S EGFR, this molecule displayed a DC50 of 0.59 nM and a Dmax of 89.3%.
Take `Cc1cc2cc(n1)-c1cnn(C)c1OCCC[C@@H](C)CN1/C(=N/C2=O)Nc2ccc(CN3CC4(CCN(C(=O)[C@@H]5CCN(c6cc(F)c([C@H]7CCC(=O)NC7=O)c(F)c6)C5)CC4)C3)cc21` [Example 84, (R)-3-(2,6-difluoro-4-((R)-3-(2-(((R,E)-1^1,2^6,7-trimethyl-3-oxo-5^2,5^3-dihydro-1^1H,5^1H-11-oxa-4-aza-5(2,1)-benzo[d]imidazola-2(2,4)-pyridina-1(4,5)-pyrazolacycloundecaphane-5^6-yl)methyl)-2,7-diazaspiro[3.5]nonane-7-carbonyl)pyrrolidin-1-yl)phenyl)piperidine-2,6-dione]: in the experiment with Del19/T790M/C797S EGFR, half-maximal degradation (DC50) was put at 0.8 nM and the “Dmax (%)” value worked out at 86.1%. Also, on L858R/T790M/C797S EGFR, the DC50 was 2.9 nM and the Dmax came out at 92.7%.
Consider `Cc1cc2cc(n1)-c1cnn(C)c1OCCC[C@@H](C)CN1/C(=N/C2=O)Nc2ccc(C(=O)N(C)[C@@H]3CCN(CCc4cc(F)c([C@H]5CCC(=O)NC5=O)c(F)c4)C3)cc21` [Example 291, (R,E)-N—((R)-1-(4-((R)-2,6-dioxopiperidin-3-yl)-3,5-difluorophenethyl)pyrrolidin-3-yl)-N,1^1,2^6,7-tetramethyl-3-oxo-5^2,5^3-dihydro-1^1H,5^1H-11-oxa-4-aza-5(2,1)-benzo[d]imidazola-2(2,4)-pyridina-1(4,5)-pyrazolacycloundecaphane-5^6-carboxamide], for which, in the experiment on Del19/T790M/C797S EGFR, the DC50 amounted to 0.513 nM and the “Dmax (%)” value is given as 72.04%. At L858R/T790M/C797S EGFR, this molecule registered a DC50 of 0.63 nM and a Dmax of 79%.
As to `Cc1cc2cc(n1)-c1cnn(C)c1OCCC[C@@H](C)CN1/C(=N/C2=O)Nc2ccc(C(=O)N[C@@H]3CCN(CCc4cc(F)c([C@H]5CCC(=O)NC5=O)c(F)c4)CC3(F)F)cc21` [Example 260, (R,E)-N—((R)-1-(4-((R)-2,6-dioxopiperidin-3-yl)-3,5-difluorophenethyl)-3,3-difluoropiperidin-4-yl)-1,2^6,7-trimethyl-3-oxo-5^2,5^3-dihydro-1^1H,5^1H-11-oxa-4-aza-5(2,1)-benzo[d]imidazola-2(2,4)-pyridina-1(4,5)-pyrazolacycloundecaphane-5^6-carboxamide], in the experiment with Del19/T790M/C797S EGFR, the DC50 was 0.633 nM and the “Dmax (%)” value was 86.51%. In addition, at L858R/T790M/C797S EGFR, the DC50 was found to be 0.544 nM and the greatest degradation seen (Dmax) is 94%.
For `Cc1cc2cc(n1)-c1cnn(C)c1OCCC[C@@H](C)CN1/C(=N/C2=O)Nc2ccc(C(=O)N3CCC4(CC3)CN(CCc3cc(F)c([C@H]5CCC(=O)NC5=O)c(F)c3)C4)cc21` [Example 310, (R)-3-(2,6-difluoro-4-(2-(7-((R,E)-1^1,2^6,7-trimethyl-3-oxo-5^2,5^3-dihydro-1^1H,5^1H-11-oxa-4-aza-5(2,1)-benzo[d]imidazola-2(2,4)-pyridina-1(4,5)-pyrazolacycloundecaphane-5^6-carbonyl)-2,7-diazaspirononan-2-yl)ethyl)phenyl)piperidine-2,6-dione], in the experiment with Del19/T790M/C797S EGFR, it took 0.578 nM to reach half-maximal degradation (DC50) and the “Dmax (%)” value is listed as 80.51%. Besides, on L858R/T790M/C797S EGFR, half-maximal degradation (DC50) was put at 0.464 nM and the Dmax is 87.8%.
